“And” between values parts separate entries of the source, which are not always exact repeats. Identical values can stand only once.
Key:
[1] = Left ventricular ejection fraction (LVEF) evaluation by MUGA, echocardiogram or cardiac MRI; format: in vivo, human
Experimental: Evaluation of left ventricular ejection fraction: LVEF evaluations were performed at baseline, after the second cycle and every 3 cycles thereafter using MUGA, echocardiogram or cardiac MRI (23, 24). A patient's on-study and last available LVEF are included in this analysis. Cardiac measurements were performed according to the American Society of Echocardiography guidelines (25). LVEFs from echocardiograms were evaluated by an independent reviewer in a blinded manner and were assessed using the biplane Simpson's method.

[2] = Rhythm evaluation by Holter and telemetry monitoring; format: in vivo, human
Description: Rhythm: A 24-hour Holter monitor was obtained prior to initiating therapy to establish a baseline rhythm. Patients were monitored by telemetry following administration of the first dose until discharge on day 3.

[3] = Serum cardiac troponin I and CPK levels prior to and on the day after each dose
Experimental: An additional ECG was obtained on day 3 of the first cycle. ECGs were obtained using an HP Pagewriter XLi or a GE Marquette MAC1200 and recorded at 25 mm/sec, with an amplitude of 10 mm/mV and with 60 Hz filtering. They were analyzed using Pagewriter A.04.01 ECG analysis software (Philips Medical Systems). The QT interval measurement in this program is made by averaging the five longest QT intervals with a T or T′ wave amplitude greater than 0.15 mV. […] Grade 1 toxicity was defined as nonspecific T-wave abnormalities, (flattening or inversion without ST segment abnormalities) and Grade 2 as ST segment depression of at least 1 mm in at least 2 leads. If both were observed, then the ECG was assigned a grade 2 toxicity. […] The QTc analysis was performed on ECGs obtained during the first six cycles from patients treated on the day 1, 8 and 15 schedule (37 patients). ECGs from patients with an intraventricular conduction delay, defined as QRS duration greater than 100 ms, were excluded from the QTc analysis since in that setting the QTc interval includes a variable depolarization interval that leads to a prolonged QTc value (22).

[4] = 16 patients receiving at least 6 cycles
[5] = 16 patients receiving at least 6 cycles, baseline
[6] = obtained in parallel with elevated cTnI samples, individual cases

Latest EF, Median [1, 4]: 63.5%
Latest EF, Range [1, 4]: 50-80%
Starting EF, Median [1, 5]: 65.5%
Starting EF, Range [1, 5]: 50-85%
EF by MUGA, On-study Median (range) ([1]; All patients (19), baseline): 61% (46-85)
EF by Echocardiogram, On-study Median (range) ([1]; All patients (23), baseline): 67% (53-85)
Median actual change in LVEF, on-study to last scan ([1]; MUGA scans, 13 patients, median 20.3 weeks): 1%
EF by MUGA, Last evaluation Median (range) ([1]; Patients treated with >6 cycles (7)): 61% (50-68)
EF by MUGA, On-study Median (range) ([1]; Patients treated with >6 cycles (7), baseline): 64% (50-77)
EF by Echocardiogram, Last evaluation Median (range) ([1]; Patients treated with >6 cycles (9)): 68% (58-80)
EF by Echocardiogram, On-study Median (range) ([1]; Patients treated with >6 cycles (9), baseline): 69% (56-85)
EF by MUGA, Last evaluation Median (range) ([1]; Patients with pre- and post treatment evaluations (13)): 61% (50-91)
EF by MUGA, On-study Median (range) ([1]; Patients with pre- and post treatment evaluations (13), baseline): 62% (46-85)
EF by Echocardiogram, Last evaluation Median (range) ([1]; Patients with pre- and post treatment evaluations (22)): 64% (53-87)
EF by Echocardiogram, On-study Median (range) ([1]; Patients with pre- and post treatment evaluations (22), baseline): 67% (53-85)
Median actual change in LVEF, on-study to last scan ([1]; echocardiograms, 22 patients, median 18.4 weeks): −1%
Number of cTnI samples found to be elevated ([3]; from 8 patients, 601 pre-treatment and 590 day-after samples): 10
CPK samples obtained in parallel with the 10 elevated cTnI samples ([3]; range, unchanged from pre-treatment): 16-200
Troponin Repeat (of elevated pre-treatment sample) ([3]; serum cTnI, individual cases): ≤ 0.2 ng/ml and ≦0.2 ng/ml
Troponin Repeat (of elevated post-treatment sample) ([3]; serum cTnI, repeated the same day, individual cases): ≤ 0.2 ng/ml and ≦0.2 ng/ml
Compound: C/C=C1\NC(=O)[C@H]2CSSCC/C=C/[C@H](CC(=O)N[C@H](C(C)C)C(=O)N2)OC(=O)[C@H](C(C)C)NC1=O [romidepsin, (1S,4S,10S,16E,21R)-7-[(2Z)-ethylidene]-4,21-diisopropyl-2-oxa-12,13-dithia-5,8,20,23-tetraazabicyclo[8.7.6]tricos-16-ene-3,6,9,19,22-pentanone]
Pre-treatment versus post-treatment LVEF ([1]; 8 patients with six or more cycles and prior doxorubicin): did not demonstrate a difference in pre-treatment and post-treatment LVEF
LVEF evaluations versus baseline ([1]; 16 patients who received six or more cycles, median cumulative dose 390 mg/m^2): did not demonstrate a change from baseline
Latest EF ([1]; individual patients receiving at least 6 cycles of therapy): 50% and 78% and 61% (3×) and 72% and 68% (3×) and 80% and 58% (2×) and 70% and 63% and 64% and 60%
Starting EF ([1]; individual patients receiving at least 6 cycles of therapy, baseline): 52% and 69% and 56% and 67% and 70% (2×) and 85% (2×) and 68% and 58% and 59% and 64% (2×) and 50% and 77% and 54%
VT on 24-hour Holter during administration ([2]; 20 administrations to 9 patients, including 2 with VT pre-treatment): No patient had VT
Patients noted to have SVT on 24-hour Holter during administration ([2]; 20 administrations to 9 patients, episodes similar to pretreatment Holter): Two
Additional patients observed to have wide complex tachycardia on telemetry ([2]; telemetry 24-36 hours, 36 patients, max one event per 24 hr, 4 to 12 beats): Four
Additional patients observed to have rare SVT on telemetry ([2]; telemetry 24-36 hours, 36 patients, similar frequency on pre-treatment Holter): Three
CPK Post-treatment [3, 6]: 20 and 28 (2×) and 18 and 16 and 85 and 157 and 144 and 162
CPK Pre-treatment [3, 6]: 29 and 43 and 27 and 47 and 70 and 200 and 179 and 28 and 39 and 160
Troponin Post-treatment ([3]; serum cTnI, day following treatment, individual cases): 2.1-3.3 ng/ml and ≦0.2 ng/ml and 3.3 ng/ml and 2.1 ng/ml and 2.6 ng/ml and 8.3 ng/ml and 2.3 ng/ml and 15.8 ng/ml and 3.6 ng/ml
Troponin Pre-treatment ([3]; serum cTnI, individual cases with an elevated sample among 1191 samples): 3.4-11.3 ng/ml and 11.3 ng/ml and ≦0.2 ng/ml and 3.4 ng/ml and 6.4 ng/ml
